Source: patent publication US20080139581A1 (priority 2005, published 2008)

- melting point: 202 to 203 °C
SMILES: CCCCCCCCc1c(CC)nc2nc(Cl)nn2c1N
